Results: patent US8877946B2, “Benzylidene-indolinone compounds and their medical use” (National University of Singapore, priority 2011, dated 2014)

tested on: HuH7 cells; experiment: MTT antiproliferative (growth inhibition) assay on HuH7 cells; assay type: cell-based, human; conditions: Homo sapiens, Huh-7, MTT, 72 h incubation, mean and SD of 3 or more independent determinations (Tables 1-8), read-out: IC 50
Source text: MTT was purchased from DUCHEFA Biochemie ([…]). Sunitinib, and sodium dodecyl sulfate, bovine serum albuminwere obtained from Sigma Aldrich (Singapore). Sorafenib was purchase from Ontario Chem. Fetal bovine serum (FBS) was obtained from Invitrogen. Human hepatocellular carcinoma cells (HuH-7 and Hep G2), and human diploid fibroblast strain (IMR 90). HuH7 was obtained as gifts from Dr Ho Han Kiat, Department of Pharmacy, NUS. IMR90 and Hep G2 were purchased from American Type Culture Collection (ATCC). HuH-7 cells were cultured in DMEM (Dulbecco's Modified Eagle Medium, high glucose) with 10% v/v fetal bovine serum (FBS), 100 mg/L penicillin G and 100 mg/L streptomycin. IMR 90 cell were cultured in EMEM (Eagle's Minimum Essential Medium), with 10% v/v FBS and 100 mg/L penicillin G and 100 mg/L streptomycin. The cells were sub-cultured when HuH7 or Hep G2 reached a density of 70-80×10^5 cell/T75 flask, and IMR 90 reached 20×10^5 cell/T75 flask. Cells were used within 2-10 passages for viability experiments.
The anti-proliferative activity of the test compounds were determined by the MTT assay. An aliquot (200 μL, 3×10^4 cells/mL for HuH7, 3.75×10^4 cells/mL for Hep G2, and 2×10^4 cells/mL for IMR 90) of medium was added to each well of the microtitre plate. […] The existing medium was removed from each well and replaced by fresh medium (200 μL) containing a known concentration of test compound. The final concentration of DMSO in each well was maintained at 0.5% v/v. (1% v/v was also utilized if the compounds were not soluble) The test compounds were incubated with the cells for another 72 h at 37 deg C., 5% CO2. The medium was then removed from the well and replaced with FBS free medium (200 μL) and MTT (50 μL of 2 mg/mL solution in phosphate buffer saline, pH 7.4). The phosphate buffer saline comprises 10 mM of potassium phosphate and 137 mM sodium chloride. After incubation (3 h) at 37 deg C., 5% CO2, the supernatant was removed and a solution of 200 μL DMSO and 25 μL Sorenson buffer (0.1 M glycine, 0.1 M sodium chloride, adjusted to pH 10.5 with 0.1 M sodium hydroxide) was added to dissolve the formazan crystals in each well. Vehicle control were cells grown in 1% v/v DMSO/Medium for 72 h, 37 deg C., 5% CO2 while blank controls were wells that contained only 200 μL DMSO and 25 μL Sorenson buffer. Absorbances were measured at 570 nm on a microplate reader (Tecan, Infinite 200). The viability of cells at a given concentration of test compound was determined from the expression:
[formula] where abs_compound=absorbance of wells containing cells and test compound, abs_vehicle (Not the same as above. Change to abs_vehicle)=absorbance of vehicle control and abs_blank=absorbance of blank control.
Each concentration of test compound was evaluated at least 3 times on separate occasions, and two different stock solution were used. The IC50 value (concentration that inhibited 50% of cell growth) was determined from the sigmoidal curve obtained by plotting percentage viability versus logarithmic concentration of test compound using GraphPad Prism 5 (San Diego, USA).

First: O=C1Nc2ccc(F)c(F)c2C1=Cc1ccccc1C(F)(F)F (mixture of isomers) [Compound 6-5, (E/Z)-4,5-Difluoro-3-(2-trifluoromethyl-benzylidene)-1,3-dihydro-indol-2-one]
Second: O=C1Nc2cc(Cl)ccc2/C1=C\c1ccccc1C(F)(F)F [Compound 1-9, (E)-6-Chloro-3-(2-trifluoromethyl-benzylidene)-1,3-dihydro-indol-2-one]
The IC50 of the first is higher: over 30 µM for the first, 24.1 ± 5.29 µM for the second.

`CS(=O)(=O)c1cccc(C=C2C(=O)Nc3ccc(F)c(F)c32)c1` (mixture of isomers) [Compound 6-9, (E/Z)-4,5-Difluoro-3-(3-methanesulfonylbenzylidene)-1,3-dihydro-indol-2-one] and `CS(=O)(=O)c1cccc(/C=C2/C(=O)Nc3cc(Cl)ccc32)c1` [Compound 1-16, (E)-6-Chloro-3-(3-methanesulfonyl-benzylidene)-1,3-dihydro-indol-2-one] are within error of each other in IC50: 13.9 ± 2.03 µM for the first, 10.8 ± 3.72 µM for the second.

`O=C1Nc2cc(Cl)ccc2/C1=C\c1ccccc1` [Compound 1-1, (E)-3-Benzylidene-6-chloro-1,3-dihydro-indol-2-one] and `O=C1Nc2ccc(Cl)cc2/C1=C\c1ccccc1` [Compound 2-1, (E)-3-Benzylidene-5-chloro-1,3-dihydro-indol-2-one] are within error of each other in IC50: 17.5 ± 3.54 µM for the first, 21.3 ± 2.22 µM for the second.

`O=C1Nc2cc(Cl)ccc2/C1=C\c1cccc(F)c1` [Compound 1-3, (E)-6-Chloro-3-(3-fluoro-benzylidene)-1,3-dihydro-indol-2-one] and `Cc1cccc(/C=C2/C(=O)Nc3cc(Cl)ccc32)c1` [Compound 1-5, (E)-6-Chloro-3-(3-methyl-benzylidene)-1,3-dihydro-indol-2-one] are within error of each other in IC50: 10 ± 0.87 µM for the first, 11 ± 0.28 µM for the second.

Compared with `O=C1Nc2cc(Cl)ccc2/C1=C\c1ccc(F)cc1` [Compound 1-4, (E)-6-Chloro-3-(4-fluoro-benzylidene)-1,3-dihydro-indol-2-one], `COc1ccc(/C=C2/C(=O)Nc3cc(Cl)ccc32)cc1` [Compound 1-8, (E)-6-Chloro-3-(4-methoxy-benzylidene)-1,3-dihydro-indol-2-one] is higher in IC50: 12.9 ± 0.95 µM for the first, over 30 µM for the second. The first is the more potent here.

Going from `COc1ccccc1/C=C1/C(=O)Nc2cc(Cl)ccc21` [Compound 1-6, (E)-6-Chloro-3-(2-methoxy-benzylidene)-1,3-dihydro-indol-2-one] to `COc1cccc(/C=C2/C(=O)Nc3cc(Cl)ccc32)c1` [Compound 1-7, (E)-6-Chloro-3-(3-methoxy-benzylidene)-1,3-dihydro-indol-2-one], the IC50 falls from over 30 µM to 12.2 ± 0.64 µM. The second is the more potent here.

`O=C1Nc2cc(Cl)ccc2/C1=C\c1ccc(C(F)(F)F)cc1` [Compound 1-11, (E)-6-Chloro-3-(4-trifluoromethyl-benzylidene)-1,3-dihydro-indol-2-one] and `O=C1Nc2cc(Cl)ccc2C1=Cc1ccc(OC(F)(F)F)cc1` [Compound 1-15, (E)-6-Chloro-3-(4-trifluoromethoxyl-benzylidene)-1,3-dihydro-indol-20-one] are within error of each other in IC50: 11 ± 1.78 µM for the first, 10.1 ± 1.73 µM for the second.

Compared with `O=C1Nc2cc(Cl)ccc2C1=Cc1ccc(F)c(F)c1` [Compound 1-12, (E)-6-Chloro-3-(3,4-difluoro-benzylidene) 1,3-dihydro-indolin-2-one], `N#Cc1cccc(/C=C2/C(=O)Nc3cc(Cl)ccc32)c1` [Compound 1-19, (E) 3-(6-Chloro-2-oxo-1,2-dihydro-indol-3-ylidenemethyl)-benzonitrile] is 2.3-fold lower in IC50: 16.7 ± 3.4 µM for the first, 7.36 ± 0.3 µM for the second.

`O=C1Nc2cc(Cl)ccc2/C1=C\c1cccc(OC(F)(F)F)c1` [Compound 1-14, (E)-6-Chloro-3-(3-trifluoromethoxyl-benzylidene)-1,3-dihydro-indol-2-one] and `NS(=O)(=O)c1cccc(/C=C2/C(=O)Nc3cc(Cl)ccc32)c1` [Compound 1-17, (E) 3-(6-Chloro-2-oxo-1,2-dihydro-indol-3-ylidenemethyl)-benzene-sulfonamide] are within 1.5-fold of each other in IC50: 5.06 ± 0.74 µM for the first, 3.41 ± 0.38 µM for the second.

Work on `CN(C)S(=O)(=O)c1cccc(/C=C2/C(=O)Nc3cc(Cl)ccc32)c1` [Compound 1-20, (E)-3-(6-Chloro-2-oxo-1,2-dihydro-indol-3-ylidenemethyl)-N,N-dimethyl-benzenesulfonamide] yielded an IC50 of 4.87 ± 0.36 µM.
